Measured values published in US20250064859A1, “HPSC-DERIVED ARTICULAR CHONDROCYTE COMPOSITIONS, SYSTEMS AND METHODS OF USE THEREOF” (The Children's Medical Center Corporation, priority 2022, published 2025).

Assays:
Assay type in all cases: cell-based, human
paraxial mesoderm = experiment: Chondrogenic potential of day 14 paraxial mesoderm induced with (420i) or without (420) the Wnt inhibitor in stage 2; details: 420 mesoderm treated with the Wnt inhibitor from day 3-5 of differentiation/stage 2
Protocol: Five experiments were conducted, and qPCR tests were performed on the cells after 4 weeks and the data was pooled and analyzed. In a second test, 420 and 420i paraxial mesoderm cells were plated in micromass cultures supplemented with TGFβ and qPCR was performed after 12 weeks of micromass expansion. In a third test, 420 and 420i paraxial mesoderm cells were plated in serum-free monolayer culture with no additional factors and qPCR was performed following 4 weeks of culture. A second group of 420 and 420i paraxial mesoderm cells were plated in serum-free monolayer culture supplemented with either FGF alone or with a mixture of FGF, TGFβ and Forskolin (FSK). qPCR was performed after 4 weeks in culture.

[1] = test system: micromass cultures (hPSC-derived articular cartilage tissues); experiment: BMP4 challenge of TGFβ3-treated micromass cultures; COL10A1 mRNA normalized to TBP
Source text: FIGS. 17A-17C depict copy number COL10A1 mRNA normalized to TBP in micromass cultures at indicated timepoints and treatment regimens. FIG. 17A depicts copy number COL10A1 mRNA in micromass cultures treated with TGFB3 from 2-24 weeks, and in TGFB3-treated micromass cultures that were switched to BMP4-supplemented media after 2 weeks (BMP4 @2w), 2 weeks, and 4, 6, 8, 10, 12 weeks in which gene expression was quantified after 2, 6, 12, or 24 weeks after switching media to BMP4-supplementation. FIG. 17B and FIG. 17C depict copy number PRG4 (FIG. 17B) and COL10A1 (FIG. 17C) in micromass cultures after 2, 6, 12, and 24 weeks (w).
FIGS. 17A-C depict copy number COL10A1 mRNA normalized to TBP in micromass cultures at indicated timepoints and treatment regimens. […] Data represents average of 4 biological replicates, error bars indicate standard error.

[2] = test system: monolayer-derived chondrocytes; experiment: Micromasses seeded with monolayer-derived chondrocytes and treated with TGFβ or BMP; phenotype and qPCR; details: for cartilage phenotype induced in micromass culture: monolayer-derived chondrocytes plated in micromass
Source text: FIGS. 9A-9C are bar graphs showing relative mRNA copy number for COL10A1 (growth plate cartilage marker) (FIG. 9A), PRG4 (articular cartilage marker) (FIG. 9B) and COL2A1 (general cartilage marker) (FIG. 9C) of monolayer-derived chondrocytes (derived with either FGF-alone or the combination of TGFβ+FGF+FSK treatment) that were subsequently cultured in micromass for 6 weeks in the presence of TGFβ or BMP4 to generate articular or growth plate-like chondrocytes and cartilage tissues. FIGS. 9D-9F are bar graphs showing mRNA copy number for COL10A1 (FIG. 9D), PRG4 (FIG. 9E) and COL2A1 (FIG. 9F) of monolayer-derived chondrocytes (derived with either FGF-alone or the combination of TGFβ+FGF+FSK treatment) that were subsequently cultured in micromass (uM) for 12 weeks in the presence of TGFβ or BMP4 to generate articular or growth plate-like chondrocytes and cartilage tissues.
Micromasses were seeded with monolayer-derived chondrocytes and were treated with TGFβ to induce articular cartilage (i.e., to reproduce “superficial zone-like” chondrocytes that express PRG4) or with BMP to induce growth plate cartilage (GPC; i.e., to produce hypertrophic chondrocytes that express COL10A1). Monolayer-derived chondrocytes were generated with the following compositions: FGF alone or TGF+FGF+FSK30.

Compound | chondrogenic potential of paraxial mesoderm (paraxial mesoderm) | COL10A1 mRNA response to BMP4 challenge ([1]; micromass treated with TGFβ for 8 weeks or less prior to BMP4) | COL10A1 mRNA response to BMP4 challenge ([1]; micromass treated with TGFβ for at least 10 weeks prior to BMP4) | COL10A1 (hypertrophic chondrocyte/GPC gene) expression ([2]; micromass, regardless of monolayer treatment prior to micromass culture) | cartilage phenotype induced in micromass culture [2] | PRG4 (articular cartilage gene) expression ([2]; micromass)
Cc1ccc2nc(NC(=O)CSc3nc4c(c(=O)n3-c3ccccc3)SCC4)sc2c1 [IWP2, N-(6-Methyl-2-benzothiazolyl)-2-[(3,4,6,7-tetrahydro-4-oxo-3-phenylthieno[3,2-d]pyrimidin-2-yl)thio]-acetamide] | increased chondrogenic potential |  |  |  |  | 
BMP4: Bone Morphogenetic Protein 4, used to induce growth plate cartilage |  | upregulate COL10A1 mRNA | do not upregulate COL10A1 mRNA | higher | induces growth plate cartilage phenotype | 
TGFB: transforming growth factor β3, TGFβ agonist used to induce articular cartilage |  |  |  |  | induces articular-like cartilage phenotype | higher
